# Measured values taken from patent US20130224110A1, “USE OF ADENOSINE RECEPTOR SIGNALING TO MODULATE PERMEABILITY OF BLOOD-BRAIN BARRIER” (CORNELL UNIVERSITY, priority 2010, published 2013).
# Legend:
# blood brain barrier [1] = experiment: Evans Blue dye extravasation across the blood brain barrier; type: in vivo, mice; conditions: single i.v. injection 100 μl 0.01 nM one hour before dye
# Description: The objective of this experiment was to determine if the blood brain barrier could be modulated by activation of adenosine receptors. NECA is a non-selective adenosine receptor agonist, with similar affinities for A1, A2A and A3 adenosine receptors and a low affinity for the A2b adenosine receptor. In order to determine if activation of adenosine receptors would induce extravasation of Evans Blue dye across the blood brain barrier (BBB), mice were treated with: NECA, a non-selective adenosine receptor agonist (n=5, 100 μl 0.01 nM); SCH58261, an A2A adenosine receptor specific antagonist (n=5, 1 mg/kg); pertussis toxin, an agent known to induce BBB leakiness and as such used as a positive control (n=7, 200 μl); and, PBS as a vehicle control (n=5, 100 μl). CD73^−/− mice, which lack the ability to produce extracellular adenosine, were also treated with NECA (n=4, 100 μl 0.01 nM). Treatments were administered as a single i.v. injection one hour prior to i.v. injection of 200 μl 1% Evans Blue dye ([…] total dye injected). Four hours after administration of Evans Blue, mice were anesthetized with a ketamine/xylazine mix and perfused via the left ventricle with ice cold PBS. […] Following extraction, the tissue/solvent mixture was centrifuged at 500×g for 30 minutes and 100 μl of supernatant was read on a BioTex spectrophotometer at 620 nm. Data is expressed as μg Evans Blue/ml DMF.
# HCMECD3 cells = experiment: cAMP levels in human brain endothelial cells (cAMP Screen kit); type: cell-based; conditions: 15 minutes
# Description: […]3 cells were grown to confluencey on 24 well plates. As adenosine receptor (“AR”) stimulation is known to influence cAMP levels, cells were treated with or without various concentrations of NECA (general AR agonist), CCPA (A1 AR agonist), CGS 21860 (A2A AR agonist), DMSO vehicle, or Forksolin (induces cAMP). After 15 minutes, lysis buffer was added and the cells were frozen at -80 C to stop the reaction. Duplicate samples were used for each condition. cAMP levels were assayed using a cAMP Screen kit (Applied Biosystems, Foster City, Calif.).
# blood brain barrier [2] = experiment: Evans Blue dye extravasation across the blood brain barrier in mice immunized for EAE; type: in vivo; conditions: WT EAE mice, 100 μl 0.01 nM on days 1, 3, 5, 7, 9; dye on day 10
# Description: In order to determine if activation of adenosine receptors would induce extravazation of Evans Blue dye across the blood brain barrier (BBB), mice were first treated on day one with NECA, a non-selective adenosine receptor agonist (n=2, 100 μl 0.01 nM); and, PBS as a vehicle control (n=2, 100 μl). On day 2 mice were then immunized with CFA-MOG35-55 and pertussis to induce EAE. Then NECA or PBS was administered every other day on day 3, day 5, day 7 and day 9. On day 10, mice were injected intravenously with 200 μl 1% Evans Blue dye ([…] total dye injected). Six hours after administration of Evans Blue, mice were anesthetized with a ketamine/xylazine mix and perfused via the left ventricle with ice cold PBS. Brains were harvested and homogenized in n,n-dimethylformamide (DMF) at 5 μl/mg (v:w). Tissue was incubated for 72 hours at room temperature in DMF to extract the dye. Following extraction, the tissue/solvent mixture was centrifuged at 500×g for 30 minutes and 100 μl of supernatant was read on a BioTex spectrophotometer at 620 nm.
smiles,measurement,setting,value
"CCNC(=O)[C@H]1O[C@@H](n2cnc3c(N)ncnc32)[C@H](O)[C@@H]1O [NECA, 5′-N-ethylcarboxamido adenosine]",Evans Blue dye migration vs. PBS control,blood brain barrier [1]; CD73−/− mice,almost five fold increase
same,Evans Blue dye migration vs. control,blood brain barrier [1]; WT mice,increase over control mice
same,cAMP levels,HCMECD3 cells,increased cAMP levels
same,BBB permeability to Evans Blue dye,blood brain barrier [2],increase in BBB permeability over PBS control EAE mice
